Paper PMC12394658, “Discovery of Zharp1-163 as a dual inhibitor of ferroptosis and necroptosis for the treatment of inflammatory disorders and kidney injury” (Cell Death Discovery, 2025)

Assays:
Assay in all cases: biochemical
Design in all cases: Kinase selectivity panel of 81 human kinases, ADP-Glo or HTRF, per cent inhibition at 1 uM
[1] = molecular target: T1, p70S6K (Homo sapiens, UniProt P23443)
T1 construct: gene RPS6KB1
Outline: (§1)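 Kinase-panel selectivity profiling of 81 kinases with compound at 1000 nM.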

[2] = molecular target: HIPK1 (Homo sapiens, UniProt Q86Z02)
Outline: as §1

[3] = molecular target: T2, CHK1 (Homo sapiens, UniProt O14757)
T2 construct: gene CHEK1
Outline: as §1

[4] = molecular target: T3, PDGFRα (Homo sapiens, UniProt P16234)
T3 construct: gene PDGFRA
T3 sequence (P16234 whole entry): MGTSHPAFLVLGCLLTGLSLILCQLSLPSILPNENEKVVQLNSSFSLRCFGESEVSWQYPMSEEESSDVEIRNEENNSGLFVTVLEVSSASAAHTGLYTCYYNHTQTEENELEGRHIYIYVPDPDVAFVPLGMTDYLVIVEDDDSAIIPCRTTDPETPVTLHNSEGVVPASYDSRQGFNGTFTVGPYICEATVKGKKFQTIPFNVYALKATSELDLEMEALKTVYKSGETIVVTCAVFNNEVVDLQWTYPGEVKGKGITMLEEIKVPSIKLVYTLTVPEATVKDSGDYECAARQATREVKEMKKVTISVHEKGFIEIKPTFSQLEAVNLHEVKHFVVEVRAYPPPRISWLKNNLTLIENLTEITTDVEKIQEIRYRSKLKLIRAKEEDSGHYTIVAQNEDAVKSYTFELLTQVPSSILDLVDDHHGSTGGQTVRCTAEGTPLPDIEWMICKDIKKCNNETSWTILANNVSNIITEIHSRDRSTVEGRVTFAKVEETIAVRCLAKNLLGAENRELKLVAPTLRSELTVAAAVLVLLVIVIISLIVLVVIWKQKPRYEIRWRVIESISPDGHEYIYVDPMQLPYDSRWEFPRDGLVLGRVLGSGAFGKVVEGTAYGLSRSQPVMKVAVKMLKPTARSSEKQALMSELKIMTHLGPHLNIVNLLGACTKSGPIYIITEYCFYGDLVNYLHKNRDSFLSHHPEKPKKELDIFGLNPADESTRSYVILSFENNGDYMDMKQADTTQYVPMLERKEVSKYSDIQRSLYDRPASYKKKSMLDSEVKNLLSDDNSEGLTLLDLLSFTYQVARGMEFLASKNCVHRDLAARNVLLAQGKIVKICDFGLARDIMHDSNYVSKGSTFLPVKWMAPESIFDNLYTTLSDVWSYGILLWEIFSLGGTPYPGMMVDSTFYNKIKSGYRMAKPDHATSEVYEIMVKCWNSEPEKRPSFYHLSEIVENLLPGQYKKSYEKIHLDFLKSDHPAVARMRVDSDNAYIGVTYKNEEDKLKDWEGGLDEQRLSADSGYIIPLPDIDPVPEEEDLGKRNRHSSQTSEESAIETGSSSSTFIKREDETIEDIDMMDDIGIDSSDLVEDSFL
Outline: as §1

[5] = molecular target: MARK1 (Homo sapiens, UniProt Q9P0L2)
Outline: as §1

[6] = molecular target: AKT1 (Homo sapiens, UniProt P31749)
AKT1, sequence (P31749 whole entry): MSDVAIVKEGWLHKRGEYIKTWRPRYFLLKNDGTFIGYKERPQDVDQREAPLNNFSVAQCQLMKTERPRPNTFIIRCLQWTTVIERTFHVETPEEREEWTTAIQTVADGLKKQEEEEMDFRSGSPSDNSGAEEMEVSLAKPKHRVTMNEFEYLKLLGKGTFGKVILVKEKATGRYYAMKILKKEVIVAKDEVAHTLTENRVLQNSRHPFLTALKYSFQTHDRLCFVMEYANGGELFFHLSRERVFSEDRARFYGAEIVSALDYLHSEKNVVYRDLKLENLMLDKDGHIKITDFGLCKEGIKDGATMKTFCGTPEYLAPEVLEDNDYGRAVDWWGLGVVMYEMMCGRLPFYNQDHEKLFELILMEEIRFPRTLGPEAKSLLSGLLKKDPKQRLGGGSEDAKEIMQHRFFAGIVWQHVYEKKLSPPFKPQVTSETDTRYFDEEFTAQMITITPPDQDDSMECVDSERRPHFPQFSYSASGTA
Outline: as §1

[7] = molecular target: PLK2 (Homo sapiens, UniProt Q9NYY3)
PLK2, sequence (Q9NYY3 whole entry): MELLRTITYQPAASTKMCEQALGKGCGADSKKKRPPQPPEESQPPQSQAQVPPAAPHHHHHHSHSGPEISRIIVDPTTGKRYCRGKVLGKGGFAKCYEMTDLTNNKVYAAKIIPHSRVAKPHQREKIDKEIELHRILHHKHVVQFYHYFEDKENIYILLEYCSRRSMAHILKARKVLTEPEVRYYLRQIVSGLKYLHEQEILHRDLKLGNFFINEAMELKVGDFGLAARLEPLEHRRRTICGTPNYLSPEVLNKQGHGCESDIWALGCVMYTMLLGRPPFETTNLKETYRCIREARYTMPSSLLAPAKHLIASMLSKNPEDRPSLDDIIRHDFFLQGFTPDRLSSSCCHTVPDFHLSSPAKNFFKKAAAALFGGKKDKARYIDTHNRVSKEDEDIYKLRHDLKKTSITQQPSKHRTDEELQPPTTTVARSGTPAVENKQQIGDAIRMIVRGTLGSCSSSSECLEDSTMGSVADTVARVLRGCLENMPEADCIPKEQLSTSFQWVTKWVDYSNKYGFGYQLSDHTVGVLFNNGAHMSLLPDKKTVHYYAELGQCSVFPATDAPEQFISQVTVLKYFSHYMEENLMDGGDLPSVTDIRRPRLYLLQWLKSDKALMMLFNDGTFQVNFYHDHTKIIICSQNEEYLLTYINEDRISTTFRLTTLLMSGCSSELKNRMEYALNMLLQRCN
Outline: as §1

[8] = molecular target: DYRK1B (Homo sapiens, UniProt Q9Y463)
Outline: as §1

[9] = molecular target: T4, HGK (Homo sapiens, UniProt O95819)
T4 construct: gene MAP4K4
Outline: as §1

[10] = molecular target: ULK2 (Homo sapiens, UniProt Q8IYT8)
ULK2, sequence (Q8IYT8 whole entry): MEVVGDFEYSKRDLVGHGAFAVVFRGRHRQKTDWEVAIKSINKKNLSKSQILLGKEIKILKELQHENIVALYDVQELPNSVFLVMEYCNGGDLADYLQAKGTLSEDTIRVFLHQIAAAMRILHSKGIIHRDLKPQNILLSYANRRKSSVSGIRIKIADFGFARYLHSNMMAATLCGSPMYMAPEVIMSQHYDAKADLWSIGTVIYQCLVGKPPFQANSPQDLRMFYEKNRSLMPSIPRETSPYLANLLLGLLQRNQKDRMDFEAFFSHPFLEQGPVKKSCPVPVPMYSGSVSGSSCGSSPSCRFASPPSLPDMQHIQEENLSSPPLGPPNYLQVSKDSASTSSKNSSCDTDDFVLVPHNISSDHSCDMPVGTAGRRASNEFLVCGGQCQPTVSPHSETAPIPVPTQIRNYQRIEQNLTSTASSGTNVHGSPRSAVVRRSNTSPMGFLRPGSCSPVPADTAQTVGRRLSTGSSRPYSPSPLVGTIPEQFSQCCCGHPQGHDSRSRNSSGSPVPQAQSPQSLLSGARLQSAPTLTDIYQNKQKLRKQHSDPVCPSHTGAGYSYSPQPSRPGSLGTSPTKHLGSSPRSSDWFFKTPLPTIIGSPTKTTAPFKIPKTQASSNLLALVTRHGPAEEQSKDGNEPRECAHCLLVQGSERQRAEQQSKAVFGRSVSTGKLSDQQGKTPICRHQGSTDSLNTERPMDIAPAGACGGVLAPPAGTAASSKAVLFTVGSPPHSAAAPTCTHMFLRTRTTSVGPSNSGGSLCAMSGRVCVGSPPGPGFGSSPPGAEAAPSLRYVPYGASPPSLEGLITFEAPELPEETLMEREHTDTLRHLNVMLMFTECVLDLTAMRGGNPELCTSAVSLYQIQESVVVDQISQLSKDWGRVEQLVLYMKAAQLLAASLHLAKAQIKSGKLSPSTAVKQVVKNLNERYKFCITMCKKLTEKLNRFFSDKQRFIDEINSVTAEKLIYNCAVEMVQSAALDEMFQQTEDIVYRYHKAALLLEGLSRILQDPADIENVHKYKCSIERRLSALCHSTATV
Outline: as §1

[11] = molecular target: CDK18/CycY (Homo sapiens, UniProt Q07002)
CDK18/CycY, sequence (Q07002 whole entry): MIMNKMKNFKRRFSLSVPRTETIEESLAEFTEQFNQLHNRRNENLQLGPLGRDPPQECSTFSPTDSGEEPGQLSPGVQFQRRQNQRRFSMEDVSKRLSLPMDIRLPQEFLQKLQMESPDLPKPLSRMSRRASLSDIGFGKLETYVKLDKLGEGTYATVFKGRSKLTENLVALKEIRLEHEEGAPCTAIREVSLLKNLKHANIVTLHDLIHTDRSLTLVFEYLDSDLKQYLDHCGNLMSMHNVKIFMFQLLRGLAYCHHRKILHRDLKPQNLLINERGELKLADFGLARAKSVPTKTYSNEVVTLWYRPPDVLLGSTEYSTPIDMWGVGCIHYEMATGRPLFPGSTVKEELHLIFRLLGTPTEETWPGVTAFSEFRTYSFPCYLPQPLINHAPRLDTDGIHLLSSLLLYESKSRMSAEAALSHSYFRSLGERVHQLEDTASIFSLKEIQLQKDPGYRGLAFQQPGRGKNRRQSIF
CDK18/CycY, sequence (Q8ND76 whole entry partner): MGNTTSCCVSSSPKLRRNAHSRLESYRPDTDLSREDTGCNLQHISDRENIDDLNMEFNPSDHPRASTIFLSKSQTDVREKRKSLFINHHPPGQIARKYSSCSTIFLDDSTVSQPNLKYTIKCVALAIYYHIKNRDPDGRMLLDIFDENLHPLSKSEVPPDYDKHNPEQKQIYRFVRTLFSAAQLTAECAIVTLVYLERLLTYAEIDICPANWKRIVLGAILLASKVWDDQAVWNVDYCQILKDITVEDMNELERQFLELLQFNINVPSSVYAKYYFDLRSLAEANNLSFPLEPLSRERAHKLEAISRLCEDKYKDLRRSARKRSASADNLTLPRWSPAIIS
Outline: as §1

[12] = molecular target: FGFR1 (Homo sapiens, UniProt P11362)
FGFR1, sequence (P11362 whole entry): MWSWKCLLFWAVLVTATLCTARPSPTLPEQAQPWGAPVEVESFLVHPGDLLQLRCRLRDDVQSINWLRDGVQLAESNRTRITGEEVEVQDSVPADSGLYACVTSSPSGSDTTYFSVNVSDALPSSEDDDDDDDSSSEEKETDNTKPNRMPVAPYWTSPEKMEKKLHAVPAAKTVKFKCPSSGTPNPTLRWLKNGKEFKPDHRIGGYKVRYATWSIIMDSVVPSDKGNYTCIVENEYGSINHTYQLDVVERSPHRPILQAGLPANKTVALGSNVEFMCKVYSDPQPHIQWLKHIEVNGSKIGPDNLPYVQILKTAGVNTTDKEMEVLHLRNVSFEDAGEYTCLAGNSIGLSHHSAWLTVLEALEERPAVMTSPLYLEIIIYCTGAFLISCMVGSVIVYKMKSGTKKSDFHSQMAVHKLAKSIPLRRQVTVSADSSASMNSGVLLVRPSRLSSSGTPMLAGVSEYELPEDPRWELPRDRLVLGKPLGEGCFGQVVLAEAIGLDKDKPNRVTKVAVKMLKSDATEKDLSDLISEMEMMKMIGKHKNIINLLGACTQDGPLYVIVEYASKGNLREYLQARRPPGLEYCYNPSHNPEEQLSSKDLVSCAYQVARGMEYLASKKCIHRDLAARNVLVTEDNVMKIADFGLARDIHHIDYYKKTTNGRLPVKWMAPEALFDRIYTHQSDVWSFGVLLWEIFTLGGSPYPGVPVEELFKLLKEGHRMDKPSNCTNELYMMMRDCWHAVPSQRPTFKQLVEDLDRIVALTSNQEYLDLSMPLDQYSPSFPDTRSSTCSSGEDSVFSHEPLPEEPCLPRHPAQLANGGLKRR
Outline: as §1

[13] = molecular target: T5, Erk2 (Homo sapiens, UniProt P28482)
T5 construct: gene MAPK1
Outline: as §1

[14] = molecular target: ABL1 (Homo sapiens, UniProt P00519)
Outline: as §1

inhibition at 1 µM ([1]; replicate Data1): -3.27%
inhibition at 1 µM ([1]; replicate Data2): -3.18%
inhibition at 1 µM ([2]; replicate Data1): 8.39%
inhibition at 1 µM ([2]; replicate Data2): -1.36%
inhibition at 1 µM ([3]; replicate Data1): 16.8%
inhibition at 1 µM ([3]; replicate Data2): 10.4%
inhibition at 1 µM ([4]; replicate Data1): -2.74%
inhibition at 1 µM ([4]; replicate Data2): 4.62%
inhibition at 1 µM ([5]; replicate Data1): -11.5%
inhibition at 1 µM ([5]; replicate Data2): 4.11%
inhibition at 1 µM ([6]; replicate Data1): -1.95%
inhibition at 1 µM ([6]; replicate Data2): 6.27%
inhibition at 1 µM ([7]; replicate Data1): -2.91%
inhibition at 1 µM ([7]; replicate Data2): -19.7%
inhibition at 1 µM ([8]; replicate Data1): 16.6%
inhibition at 1 µM ([8]; replicate Data2): 9.23%
inhibition at 1 µM ([9]; replicate Data1): 4.09%
inhibition at 1 µM ([9]; replicate Data2): 11.5%
inhibition at 1 µM ([10]; replicate Data1): -5.94%
inhibition at 1 µM ([10]; replicate Data2): -8.78%
inhibition at 1 µM ([11]; replicate Data1): 4.89%
inhibition at 1 µM ([11]; replicate Data2): -0.64%
inhibition at 1 µM ([12]; replicate Data1): 2.7%
inhibition at 1 µM ([12]; replicate Data2): -0.57%
inhibition at 1 µM ([13]; replicate Data1): 17.9%
inhibition at 1 µM ([13]; replicate Data2): 10.3%
inhibition at 1 µM ([14]; replicate Data1): 6.71%
inhibition at 1 µM ([14]; replicate Data2): 9.11%
Structure (SMILES): Nc1cn2cc(-c3cnc4c(c3)N(C(=O)OC3CCCCC3)CCO4)ccc2n1 [Zharp1-163]
